Read-outs that look alike come from different tables or passages of the source.
What was measured:
Type in all cases: cell-based, human
[1] = tested on: UOK257-FLCN^− cells; assay: SRB growth inhibition assay in UOK257-FLCN^− cells; conditions: for GI50: SRB assay, 72 hours continuous exposure, mean ± SE (n), read-out: GI50 nM in UOK-FLCN^−; for GI50 Ratio of UOK-FLCN^+/UOK-FLCN^−: ratio>1 = more inhibitory to FLCN^− cells
Description: (§1) Human renal carcinoma of BHD origin cells UOK-257 (UOK-FLCN^−) and FLCN transfected UOK-257 cells UOK-FLCN^+ (Yang et al Cancer Genet Cytogenet. 2008 Jan. 15; 180(2):100-9) were provided by Dr Marston Linehan and Dr. Laura S Schmidt (Urologic Oncology Branch, Centre for Cancer Research, National Cancer Institute, National Institutes of Health, Bethesda, Md. 20892, USA). UOK-257 is the only RCC cell line that has been derived from a patient with BHD and harbours a germline FLCN frameshift mutation (c.1285dupC) (predicted, in the absence of nonsense mediated mRNA decay, to lead to premature protein truncation (p.His429ProfsX27) (Yang et al., Cancer Genet Cytogenet, 2008 Jan. 15; 180(2):100-9). We are not aware of any sporadic RCC cell lines with homozygous FLCN inactivation. FTC-133 cells were purchased from ECACC (Salisbury, United Kingdom). These cells are a non-RCC cell line derived from human thyroid carcinoma. 786-0 cells were available from the author's lab (Clifford et al., Hum Mol Genet. 2001 May 1; 10(10):1029-38). 786-O is a kidney cancer cell line that harbours an inactivating VHL gene mutation (c.311delG p.G104fs*55). All cell lines were cultured in DMEM with supplement of 10% foetal bovine serum except for FTC-133 cells which were incubated in medium with DMEM and Hens (1:1).
(§2) The sensitivity of the cell lines to drug-induced cell growth inhibition was determined using the sulphorhodamine B assay (SRB) as described by Lu et al., Clin Cancer Res. 2001:7:2114-23. Briefly, adherent exponentially growing cells were seeded into 96-well plates at 3-5×10^3 cells/100 μl/well. […] The absorbance per well was measured at 570 nm on a Victor X3 Multilabel Plate Reader (PerkinElmor, Beaconsfield, United Kingdom).
GI50 values, defined as the concentration of compounds required to inhibit growth by 50%, were then calculated. The ratio of GI50 value from UOK257-FLCN^+ and UOK257-FLCN^− were calculated and used as an indicator for the sensitivity to FLCN mutant cells.

[2] = tested on: UOK257-FLCN^+ cells; assay: SRB growth inhibition assay in UOK257-FLCN^+ cells; conditions: 72 hours continuous exposure, mean ± SE (n), read-out: GI50 nM in UOK-FLCN^+
Description: as §1
as §2, with “μl/well. After 20-24 h at 37° C., drugs were added at the appropriate drug concentrations to the wells (final DMSO conc. 1%) as indicated in the Results section.” for “μl/well.”
UOK-257 is the only RCC cell line that has been derived from a patient with BHD and harbours a germline FLCN frameshift mutation (c.1285dupC) (predicted, in the absence of nonsense mediated mRNA decay, to lead to premature protein truncation (p.His429ProfsX27) (Yang et al Cancer Genet Cytogenet, 2008 Jan. 15; 180(2):100-9). Both UOK257-FLCN^− and UOK257-FLCN^+ cells were examined for their sensitivities to growth inhibition induced by 15 compounds selected from the COMPARE analysis. Various concentrations of compounds were introduced into the cells 24 hrs after seeding, incubation was continued for 72 hours and growth inhibition was assessed using the suiphorhodamine B (SRB) assay. GI50 values, defined as the concentration of compounds required to inhibit growth by 50%, were then calculated. The ratio of GI50 value from UOK257-FLCN^+ and UOK257-FLCN^− were calculated and used as an indicator for the sensitivity to FLCN mutant cells.

[3] = tested on: caspase3/7 activity in UOK257-FLCN^− and UOK257-FLCN^+ cells; assay: Caspase-Glo 3/7 assay in UOK-257 cells with/without FLCN expression; conditions: 48 hrs, all three concentrations
Procedure: The ability to induce caspase 3/7 activation after exposure to compounds was measured by Caspase-Glo 3/7 Assay (Promega, Southampton, United Kingdom) according to manufacturer's instruction. The cells were seeded and dosed as described in growth inhibition assay. At the end of incubation, 70 μl of medium was removed and 30 μl of assay reagent was added to the remaining medium. Additional one hour incubation with shaking was carried out at room temperature. The resultant luminescent light was measured in a Victor X3 Multilabel Plate Reader (PerkinElmer, Beaconsfield, United Kingdom). Cell viability after compound exposure was determined by CellTiter-Blue Cell Viability Assay (Promega, Southampton, the United Kingdom) according to manufacturer's instruction. At the end of drug treatment, 20 μl of reagent was added to the medium in 96 wells and the cells were incubated for additional 4 hours. The cell viability was measured by fluorescence with a 570 nm excitation and 590 nm emission set in a Victor X3 Multilabel Plate Reader (PerkinElmer, Beaconsfield, United Kingdom).
After 48 hrs incubation, with three concentration ranges for each drug, the capase3/7 activity was detected by amount of luminescence for each cell line. The ratio of caspase3/7 activity from UOK257-FLCN^− and UOK257-FLCN^+ were calculated and used as indicators for the ability of the individual compound to induce caspase3/7 activity to FLCN mutant cells.
These ratios were calculated and used as indicators for the sensitivity to mutant FLCN cells.

Row | Compound | GI50 [1] [nM] | GI50 Ratio of UOK-FLCN^+/UOK-FLCN^− [1] | GI50 [2] [nM] | ratio of caspase3/7 activity from UOK257-FLCN^− and UOK257-FLCN^+ [3] | GI50 ([1]; Homo sapiens) [nM] | GI50 ([2]; Homo sapiens) [nM] | fold difference in the GI50 values between UOK257-FLCN^+ and UOK257-FLCN^− cells ([1]; GI50 higher in FLCN^− cells (FLCN^− less sensitive)) [fold] | fold difference in the GI50 values between FLCN-null and FLCN-wild type UOK257 cells ([1]; GI50 higher in FLCN-wild type cells (FLCN-null more sensitive)) [fold]
1 | bruceantin | 68.4 ± 14.9 | 0.64 | 43.6 ± 5.1 | < 1 |  |  |  | 
2 | CS[C@H]1SC[C@H]2C(=O)N(C)[C@@H](C(C)C)C(=O)OC[C@@H](NC(=O)c3cnc4ccccc4n3)C(=O)N[C@@H](C)C(=O)N(C)[C@@H]1C(=O)N(C)[C@@H](C(C)C)C(=O)OC[C@@H](NC(=O)c1cnc3ccccc3n1)C(=O)N[C@@H](C)C(=O)N2C [echinomycin] |  | 0.71 |  |  | 5.72 ± 0.22 | 4.03 ± 0.89 |  | 
3 | COc1cccc2c1C(=O)c1c(O)c3c(c(O)c1C2=O)C[C@@](O)(C(C)=O)C[C@@H]3O[C@H]1C[C@H](N(Cc2ccccc2)Cc2ccccc2)[C@@H](O)[C@H](C)O1 [N,N-dibenzyldaunomycin] | 5740 ± 918 | 0.22 | 1270 ± 549 |  |  |  |  | 
4 | COc1cccc2c1C(=O)c1c(O)c3c(c(O)c1C2=O)C[C@@](O)(C(=O)CO)C[C@@H]3O[C@H]1C[C@H](N2CCOCC2C#N)[C@H](O)[C@H](C)O1 (stereo partly drawn) [cyanomorpholino-ADR] | 3.79 ± 0.39 | 0.16 | 0.62 ± 0.16 |  |  |  | 6 | 
5 | COc1cc([C@@H]2c3cc4c(cc3[C@@H](O[C@@H]3O[C@@H]5CO[C@@H](c6cccs6)O[C@H]5[C@H](O)[C@H]3O)[C@H]3COC(=O)[C@H]23)OCO4)cc(OC)c1O [VM-26 (teniposide), teniposide] |  | 1.10 |  |  | 773 ± 162 | 849 ± 358 |  | 
6 | CC(=O)O[C@H]1C(=O)[C@@]2(C)[C@H]([C@H](OC(=O)c3ccccc3)[C@]3(O)C[C@H](OC(=O)[C@H](O)[C@@H](NC(=O)c4ccccc4)c4ccccc4)C(C)=C1C3(C)C)[C@]1(OC(C)=O)CO[C@@H]1C[C@@H]2O [paclitaxel (taxol), paclitaxel] |  | 6.81 |  |  | 75.5 ± 9.2 | 514 ± 86 |  | ~7
7 | COc1cccc2c1C(=O)c1c(O)c3c(c(O)c1C2=O)C[C@@](O)(C(=O)CO)C[C@@H]3O[C@H]1C[C@H](N)[C@H](O)[C@H](C)O1 [doxorubicin (adriamycin), doxorubicin] |  | 1.37 |  |  | 423 ± 54 | 581 ± 109 |  | 

From patent US20130150317A1, “COMPOUNDS FOR THE TREATMENT OF RENAL CELL CARCINOMA” (Myrovlytis Technology Ventures Limited, priority 2010, published 2013)
